Test results reported in patent US12078642B2, “Methods for evaluating and improving cognitive function” (THE UNIVERSITY OF MELBOURNE, priority 2017, dated 2024).
Where “and” joins values, the source holds several entries; their conditions need not be identical. Equal values may be shown once.

Test system: old mice
Assay: Barnes Maze cognitive function (memory) test
Type: in vivo, mouse
Settings: for Time searching for the escape hatch in the target zone after CE 18:1 versus before (FIG. 11): old mice (24 months), same mice before and after CE 18:1 enriched diet, 470 mg per kg
Protocol: The cognitive function of the mice was tested using a Barnes Maze. The Barnes maze makes use of a mouse's nature to avoid bright lights and open spaces. The Barnes maze was a white 150 cm disk with 36 evenly spaced holes. The disk is elevated 64 cm above the ground and four visual cues—two 3D cues and two 2D cues—are placed in four quadrants, denoting four possible escape holes. The escape box was placed under the assigned escape hole and fastened by tape. Four portable floodlights were used to evenly illuminate the maze and a light meter was used to ensure consistent brightness of 3400 to 3600 lux. Prior to the beginning of a trial, the maze and the escape box were cleaned with 80% ethanol to remove olfactory cues.
The mouse was placed in the centre of the maze under a cover. The cover was then retracted using a pulley system and the mouse was allowed to explore the maze for four minutes to find and enter the escape hole. If the mouse entered the escape hole in less than four minutes, the time was recorded and the floodlights switched off. If the mouse had not entered the escape hole after four minutes, the mouse was gently guided to the escape hole and lights were switched off. The mouse was allowed to remain in the escape box for one minute before it was returned to its home box outside the experimental room. For the probe trial, the escape box was removed and the trial length was shortened to 3 minutes (180 seconds). The duration required, distance traveled, and latency to the assigned escape hole was recorded using topscan lite 2.0. The time the mouse spent in the “target zone” (the 5 holes consisting of the assigned escape hole and the two holes on either side) searching for the assigned escape hole was also recorded.
Trials were conducted over seven days; day 1 contained a single habituation trial, days 2-6 contained 3 acquisition trials a day and day 7 contained a single probe trial. […]
The CE 18:1 oral administration consisted of 20 mg CE 18:1 suspended in 0.5 g of raspberry flavoured agar jelly. To prepare the CE 18:1 enriched jelly, 4 g of agar powder and 0.1 g NaOH pellets was dissolved in 13 ml raspberry flavoured cordial, with MilliQ water added q.s. to form a total of 200 mL jelly solution. To the jelly solution, 400 mg of cholesteryl oleate was suspended in 40 ml of jelly to form the CE 18:1 oral administration.
Seven old mice (24 months old) were subjected to the Barnes Maze as described above, and the time the mice spent investigating the “target zone” during the probe trial was investigated. The same seven old mice were then fed 0.5 g of the CE 18:1 enriched jelly once a day (20 mg CE 18:1, 4% w/w), which correlated to a CE 18:1 dosage rate of 470 mg per kg of bodyweight. The mice were the subjected to the Barnes Maze as described above, and the time the mice spent investigating the “target zone” during the probe trial was investigated.

[1] = individual old mice (24 months), probe trial of 180 s, after 0.5 g CE 18:1 enriched jelly once a day orally (20 mg CE 18:1, 470 mg per kg bodyweight), one value per mouse

## CCCCCCCC/C=C\CCCCCCCC(=O)O[C@H]1CC[C@@]2(C)C(=CC[C@H]3[C@@H]4CC[C@H]([C@H](C)CCCC(C)C)[C@@]4(C)CC[C@@H]32)C1 [CE 18:1, cholesteryl oleate]
Average of seven old mice (24 months), probe trial, after CE 18:1 jelly orally 470 mg per kg, before CE 18:1: 4.70%
  Percentage of time spent at target zone out of 180 sec (%), After CE 18:1, AVERAGE: 9.5%
Average of seven old mice (24 months), probe trial, after CE 18:1 jelly orally 470 mg per kg, before CE 18:1: 8.47 s
  Duration at target zone (s), After CE 18:1, AVERAGE: 17.10 s
[1]
  Duration at target zone (s), After CE 18:1: 16.00 s and 16.48 s and 28.68 s and 4.84 s and 23.40 s and 21.28 s and 9.04 s
  Percentage of time spent at target zone out of 180 sec (%), After CE 18:1: 8.89% and 9.16% and 15.93% and 2.69% and 13.00% and 11.82% and 5.02%
Probe trial
  Time searching for the escape hatch in the target zone after CE 18:1 versus before (FIG. 11): statistical increase in time searching for the escape hatch in the target zone
Probe trial, listed as cholesteryl oleate
  Time searching for the escape hatch in the target zone after CE 18:1 versus before (FIG. 11): improved cognitive function in mice
Probe trial, listed as cholesteryl oleate (CE 18:1)
  Time searching for the escape hatch in the target zone after CE 18:1 versus before (FIG. 11): spent more time investigating the target zone
